Patent US20120101083A1, “S1P1 AGONISTS COMPRISING A BICYCLIC N-CONTAINING RING” (GLAXO GROUP LIMITED, priority 2009, published 2012)
Counter-ions that a name gives are not always drawn.

Legend:
[1] = biological target: T1, S1P1 receptor (S1P1 expressing RH7777 membranes) (Homo sapiens, UniProt P21453); test: S1P1 GTPγS assay; type: biochemical; conditions: tested in one of the above S1P1 assays (two GTPγS formats)
T1 construct: expressed in transfected cells; host or cells: RH7777 cells (membranes)
Procedure, shortened: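 Membranes from RH7777 cells expressing human S1P1 (1.5 μg/well) precoupled 30 min on ice to WGA SPA beads in 20 mM HEPES pH 7.4, 10 mM MgCl2, 100 mM NaCl, with 10 μM GDP and 90 μg/ml saponin. [35S]-GTPγS 0.5 nM final added with compound; SPA signal read immediately.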

[2] = biological target: T2, S1P1 (PathHunter CHO-K1 EDG1 β-Arrestin cell line) (Homo sapiens, UniProt P21453); test: S1P-1 β-Arrestin recruitment assay; type: cell-based; conditions: CHO-K1 EDG1 β-Arrestin cells, chemi-luminescence
T2 construct: host or cells: PathHunter CHO-K1 EDG1 β-Arrestin cell line
Procedure, shortened: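 CHO-K1 cells expressing S1P1 and β-arrestin 2 fused to complementing β-galactosidase fragments, at 1×10^4 cells/well in pH 7.4 buffer with 0.1% BSA. Compound exposure 90 min at 37 °C then 15 min room temperature; chemiluminescent substrate added for 60 min before luminescence read.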

T1 sequence (P21453 whole entry): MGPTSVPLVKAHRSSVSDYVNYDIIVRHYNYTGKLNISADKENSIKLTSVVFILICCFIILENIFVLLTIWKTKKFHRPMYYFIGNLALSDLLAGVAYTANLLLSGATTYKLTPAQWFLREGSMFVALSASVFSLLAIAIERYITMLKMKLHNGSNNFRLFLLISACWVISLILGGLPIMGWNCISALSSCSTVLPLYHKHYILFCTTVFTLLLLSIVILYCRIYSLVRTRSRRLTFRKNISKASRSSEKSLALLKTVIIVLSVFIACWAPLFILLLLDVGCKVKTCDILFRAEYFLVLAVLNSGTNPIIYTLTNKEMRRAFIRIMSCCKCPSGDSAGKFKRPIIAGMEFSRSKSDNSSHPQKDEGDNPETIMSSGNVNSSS
T2 sequence (P21453 whole entry): as above
T2 sequence (P32121 whole entry partner): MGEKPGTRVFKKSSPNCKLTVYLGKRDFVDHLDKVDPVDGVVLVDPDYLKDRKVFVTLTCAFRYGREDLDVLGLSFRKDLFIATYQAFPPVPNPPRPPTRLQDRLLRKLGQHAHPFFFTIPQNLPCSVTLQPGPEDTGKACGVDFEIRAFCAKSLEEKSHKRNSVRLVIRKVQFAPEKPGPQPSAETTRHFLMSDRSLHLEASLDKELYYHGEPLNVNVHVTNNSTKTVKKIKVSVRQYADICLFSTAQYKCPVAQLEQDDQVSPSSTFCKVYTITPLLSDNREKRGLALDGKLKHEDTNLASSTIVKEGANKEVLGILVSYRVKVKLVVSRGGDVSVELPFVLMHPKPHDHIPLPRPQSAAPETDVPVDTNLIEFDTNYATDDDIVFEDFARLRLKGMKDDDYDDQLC

| SMILES | EC50 [1] | EC50 [2] |
| --- | --- | --- |
| Cc1c(-c2noc(-c3ccc(OC(C)C)c(C#N)c3)n2)ccc2c1CCN(CC(=O)N[C@@H](C)CO)CC2 [Example 158, 2-[7-(5-{3-cyano-4-[(1-methylethyl)oxy]phenyl}-1,2,4-oxadiazol-3-yl)-6-methyl-1,2,4,5-tetrahydro-3H-3-benzazepin-3-yl]-N-[(1S)-2-hydroxy-1-methylethyl]acetamide] | ≤ 100 nM | ≤ 10 nM |
| Cc1c(-c2noc(-c3ccc(OC(C)C)c(C#N)c3)n2)ccc2c1CCN(CC(=O)N[C@H](C)CO)CC2 [Example 159] | ≤ 100 nM | ≤ 10 nM |
| Cc1c(-c2noc(-c3ccc(OC(C)C)c(C#N)c3)n2)ccc2c1CCN(CC(=O)NC(CO)CO)CC2 [Example 186, 2-[7-(5-{3-cyano-4-[(1-methylethyl)oxy]phenyl}-1,2,4-oxadiazol-3-yl)-6-methyl-1,2,4,5-tetrahydro-3H-3-benzazepin-3-yl]-N-[2-hydroxy-1-(hydroxymethyl)ethyl]acetamide] | ≤ 100 nM | ≤ 10 nM |
| Cc1c(-c2noc(-c3ccc(OC(C)C)c(C#N)c3)n2)ccc2c1CCN(C(=O)CNCC(O)CO)CC2 (stereo not drawn) [Example 187, 5-(3-{3-[N-(2,3-dihydroxypropyl)glycyl]-6-methyl-2,3,4,5-tetrahydro-1H-3-benzazepin-7-yl}-1,2,4-oxadiazol-5-yl)-2-[(1-methylethyl)oxy]benzonitrile] | ≤ 100 nM | ≤ 10 nM |
| Cc1c(-c2noc(-c3ccc(OC(C)C)c(C#N)c3)n2)ccc2c1CCN(C(=O)CNC(CO)CO)CC2 [Example 189, 5-[3-(3-{N-[2-hydroxy-1-(hydroxymethyl)ethyl]glycyl}-6-methyl-2,3,4,5-tetrahydro-1H-3-benzazepin-7-yl)-1,2,4-oxadiazol-5-yl]-2-[(1-methylethyl)oxy]benzonitrile] | ≤ 100 nM | ≤ 10 nM |

Next, values leading:

| EC50 [1] | EC50 [2] | SMILES |
| --- | --- | --- |
| ≤ 100 nM | ≤ 10 nM | CC(C)Oc1ccc(-c2nc(-c3ccc4c(c3)CCN(CC(=O)NC[C@H](O)CO)CC4)no2)cc1C#N [Example 194, 2-[7-(5-{3-cyano-4-[(1-methylethyl)oxy]phenyl}-1,2,4-oxadiazol-3-yl)-1,2,4,5-tetrahydro-3H-3-benzazepin-3-yl]-N-[(2S)-2,3-dihydroxypropyl]acetamide hydrochloride] |
| ≤ 100 nM | ≤ 10 nM | CC(C)Oc1ccc(-c2nc(-c3ccc4c(c3)CCN(CC(=O)NC(CO)CO)CC4)no2)cc1C#N [Example 195, 2-[7-(5-{3-cyano-4-[(1-methylethyl)oxy]phenyl}-1,2,4-oxadiazol-3-yl)-1,2,4,5-tetrahydro-3H-3-benzazepin-3-yl]-N-[2-hydroxy-1-(hydroxymethyl)ethyl]acetamide hydrochloride] |
| ≤ 1000 nM | ≤ 100 nM | CC(C)Oc1ccc(-c2nc(-c3ccc4c(c3)CCN(C(=O)CNC[C@H](O)CO)CC4)no2)cc1C#N [Example 196, 5-[3-(3-{N-[(2S)-2,3-dihydroxypropyl]glycyl}-2,3,4,5-tetrahydro-1H-3-benzazepin-7-yl)-1,2,4-oxadiazol-5-yl]-2-[(1-methylethyl)oxy]benzonitrile hydrochloride] |
| ≤ 100 nM | ≤ 10 nM | CC(C)Oc1ccc(-c2nc(-c3ccc4c(c3)CCN(C(=O)CNC(CO)CO)CC4)no2)cc1C#N [Example 197, 5-[3-(3-{N-[2-hydroxy-1-(hydroxymethyl)ethyl]glycyl}-2,3,4,5-tetrahydro-1H-3-benzazepin-7-yl)-1,2,4-oxadiazol-5-yl]-2-[(1-methylethyl)oxy]benzonitrile hydrochloride] |
